This is an account of results in patent US12371454B2, “Cyclic peptide compound having Kras inhibitory action” (priority 2019, dated 2025).

Starred links: 1 amine or outer side, 2 acyl side, 3 side chain; linkers in the order of their positions; H or OH if unused. Positions of bridges follow the written chain, without caps; N, C: chain ends. Non-standard residues stand in square brackets, D forms with d. Residues, ends and D or L forms follow the SMILES beside them. *: point of attachment. hPhe(3-Cl-4-CF3) = N[C@@H](CCc1ccc(C(F)(F)F)c(Cl)c1)C(=O)O; NMePhe(4-Me) = CN[C@@H](Cc1ccc(C)cc1)C(=O)O; NMedβ3hAla = C[C@H](CC(=O)[*:2])N(C)[*:1]; NMeGly(cPent) = CN[C@H](C(=O)O)C1CCCC1; Gly(cPent) = N[C@H](C(=O)O)C1CCCC1; NMeCha = CN[C@@H](CC1CCCCC1)C(=O)O; NMeGly(cPr) = CN[C@H](C(=O)O)C1CC1; NMehLeu = CN[C@@H](CCC(C)C)C(=O)O; NMeCba = CN[C@@H](CC1CCC1)C(=O)O; NMeChg = CN[C@H](C(=O)O)C1CCCCC1; NMeI = CC[C@H](C)[C@H](NC)C(=O)O; NMeD = CN[C@@H](CC(=O)O)C(=O)O; NMeL = CN[C@@H](CC(C)C)C(=O)O; NMeNle = CCCC[C@H](NC)C(=O)O; NMeV = CN[C@H](C(=O)O)C(C)C; NMeS = CN[C@@H](CO)C(=O)O; NMeA = CN[C@@H](C)C(=O)O; Piperidide = C1CCN(*)CC1; Pyrrolidide = C1CCN(*)C1; dNMeA = CN[C@H](C)C(=O)O; Ac5c = NC1(C(=O)O)CCCC1; Aze = O=C(O)[C@@H]1CCN1; Ac4c = NC1(C(=O)O)CCC1; Cyclopropyl = C1CC1*; Sar = CNCC(=O)O

Test [1] deals with Human pancreatic cancer cell line AsPC-1. Briefly: Measurement of AsPC-1 cell growth inhibition (AsPC-1 CGI). The format is cell-based. As to conditions: 96 h. The essentials: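 AsPC-1 cells in 15% FBS RPMI-1640 were exposed to test compound for 96 hours at 37° C, with CellTiter-Glo as endpoint.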
Test [2] concerns the target T1, Kras and SOS1 (biotin-tagged human Kras loaded with GDP, His-tagged human SOS1) (Homo sapiens, UniProt P01116, G12D).
T1 construct: made in house; host or cells: E. coli (stated for Kras only)
The experiment in a line: Protein-protein interaction inhibition between Kras and SOS1 (KrasGl2D-SOS PPI) using AlphaScreen. The format is binding. The note with it: AlphaScreen; biotin-tagged human Kras loaded with GDP, His-tagged human SOS1; read-out: KRAS G12D-SOS PPI IC50. The essentials: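 AlphaScreen format: Ni donor beads capture His-SOS1, streptavidin acceptor beads capture biotinylated Kras (E. coli-expressed, GDP-loaded post-purification). Excite 680 nm, read 520-620 nm.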

T1 sequence (P01116 1-188 isoform P01116-2 G12D): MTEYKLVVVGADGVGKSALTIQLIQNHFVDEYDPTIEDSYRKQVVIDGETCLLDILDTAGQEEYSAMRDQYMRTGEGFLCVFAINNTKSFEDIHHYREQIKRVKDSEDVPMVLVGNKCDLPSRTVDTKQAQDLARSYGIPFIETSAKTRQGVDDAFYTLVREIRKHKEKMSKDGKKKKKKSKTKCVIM

Take `CC[C@H](C)[C@@H]1NC(=O)[C@H](C)N(C)C(=O)C[C@@H](C)N(C)C(=O)[C@H](C(C)C)N(C)C(=O)C2(CCCC2)NC(=O)[C@@H]2CCCN2C(=O)[C@H](CCc2ccc(C(F)(F)F)c(Cl)c2)NC(=O)[C@@H](C)N(C)C(=O)[C@H](CC2CCCCC2)N(C)C(=O)[C@@H]2CCCN2C(=O)CN(C)C1=O` [Compound 1784] (cyclo([Ac5c][NMeV][NMedβ3hAla][NMeA]I[Sar]P[NMeCha][dNMeA][hPhe(3-Cl-4-CF3)]P)): the figures for the IC50 in test [1] and in test [2] were 50 to 100 nM and 11 nM, respectively.
As for `CC[C@H](C)[C@@H]1NC(=O)[C@H](COC2CC2)N(C)C(=O)C[C@@H](C(=O)N2CCCCC2)N(C)C(=O)[C@H](C2CCCCC2)N(C)C(=O)C2(CCCC2)NC(=O)[C@@H]2CCCN2C(=O)[C@H](CCc2ccc(C(F)(F)F)c(Cl)c2)NC(=O)CN(C)C(=O)[C@H](CC2CCCCC2)N(C)C(=O)CN(C)C(=O)CN(C)C1=O` [Compound 1786] ([NMeS](Cyclopropyl)I[Sar][Sar][NMeCha][Sar][hPhe(3-Cl-4-CF3)]P[Ac5c][NMeChg][NMeD]-Piperidide; lactam N-11), the figures for the IC50 in test [1] and in test [2] were 50 to 100 nM and 0.72 nM, respectively.
In the same order, the values of `CC[C@H](C)[C@@H]1NC(=O)[C@H](CC(C)C)N(C)C(=O)C[C@@H](C(=O)N2CCCC2)N(C)C(=O)[C@H]([C@@H](C)CC)N(C)C(=O)C2(CCCC2)NC(=O)[C@@H]2CCCN2C(=O)[C@H](CCc2ccc(C(F)(F)F)c(Cl)c2)NC(=O)CN(C)C(=O)[C@H](Cc2ccc(C)cc2)N(C)C(=O)CN(C)C(=O)CN(C)C1=O` [Compound 1790] ([NMeL]I[Sar][Sar][NMePhe(4-Me)][Sar][hPhe(3-Cl-4-CF3)]P[Ac5c][NMeI][NMeD]-Pyrrolidide; lactam N-11) are 20 to 50 nM and 0.7 nM.
Turning to `CC[C@H](C)[C@@H]1NC(=O)[C@H](C2CC2)N(C)C(=O)C[C@@H](C(=O)N2CCCCC2)N(C)C(=O)[C@H](C2CCCCC2)N(C)C(=O)C2(CCCC2)NC(=O)[C@@H]2CCCN2C(=O)[C@H](CCc2ccc(C(F)(F)F)c(Cl)c2)NC(=O)CN(C)C(=O)[C@H](CC2CCCCC2)N(C)C(=O)CN(C)C(=O)CN(C)C1=O` [Compound 1796] ([NMeGly(cPr)]I[Sar][Sar][NMeCha][Sar][hPhe(3-Cl-4-CF3)]P[Ac5c][NMeChg][NMeD]-Piperidide; lactam N-11), the figures for the IC50 in test [1] and in test [2] were 100 to 500 nM and 0.76 nM, respectively.
On to `CC(C)C[C@H]1C(=O)N[C@@H](C(C)C)C(=O)N(C)CC(=O)N(C)CC(=O)N(C)[C@@H](CC2CCCCC2)C(=O)N(C)CC(=O)N[C@@H](CCc2ccc(C(F)(F)F)c(Cl)c2)C(=O)N2CCC[C@H]2C(=O)NC2(CCCC2)C(=O)N(C)[C@@H](C2CCCCC2)C(=O)N(C)[C@H](C(=O)N2CCCCC2)CC(=O)N1C` [Compound 1798] ([NMeL]V[Sar][Sar][NMeCha][Sar][hPhe(3-Cl-4-CF3)]P[Ac5c][NMeChg][NMeD]-Piperidide; lactam N-11), for which the figures for the IC50 in test [1] and in test [2] were 50 to 100 nM and 1 nM, respectively.
In the case of `CC[C@H](C)[C@@H]1NC(=O)[C@H](CC(C)C)N(C)C(=O)C[C@@H](C(=O)N2CCCCC2)N(C)C(=O)[C@H](C(C)C)N(C)C(=O)C2(CCCC2)NC(=O)[C@@H]2CCCN2C(=O)[C@H](CCc2ccc(C(F)(F)F)c(Cl)c2)NC(=O)CN(C)C(=O)[C@H](CC(C)C)N(C)C(=O)[C@@H]2CCN2C(=O)[C@H](C)N(C)C1=O` [Compound 1803] ([NMeL]I[NMeA][Aze][NMeL][Sar][hPhe(3-Cl-4-CF3)]P[Ac5c][NMeV][NMeD]-Piperidide; lactam N-11), the values for the IC50 in test [1] and in test [2] were 100 to 500 nM and 5.3 nM, respectively.
The like results for `CC[C@H](C)[C@@H]1NC(=O)[C@H](CC(C)C)N(C)C(=O)C[C@@H](C(=O)N2CCCCC2)N(C)C(=O)[C@H](C2CCCCC2)N(C)C(=O)C2(CCCC2)NC(=O)[C@@H]2CCCN2C(=O)[C@H](CCc2ccc(C(F)(F)F)c(Cl)c2)NC(=O)CN(C)C(=O)[C@H](Cc2ccc(C)cc2)N(C)C(=O)CN(C)C(=O)CN(C)C1=O` [Compound 1804] ([NMeL]I[Sar][Sar][NMePhe(4-Me)][Sar][hPhe(3-Cl-4-CF3)]P[Ac5c][NMeChg][NMeD]-Piperidide; lactam N-11) were, in that order, 50 to 100 nM and 0.51 nM.
`CC[C@H](C)[C@@H]1NC(=O)[C@H](C(C)C)N(C)C(=O)C[C@@H](C(=O)N2CCCCC2)N(C)C(=O)[C@H](C2CCCCC2)N(C)C(=O)C2(CCCC2)NC(=O)[C@@H]2CCCN2C(=O)[C@H](CCc2ccc(C(F)(F)F)c(Cl)c2)NC(=O)CN(C)C(=O)[C@H](CC2CCCCC2)N(C)C(=O)CN(C)C(=O)CN(C)C1=O` [Compound 1807] ([NMeV]I[Sar][Sar][NMeCha][Sar][hPhe(3-Cl-4-CF3)]P[Ac5c][NMeChg][NMeD]-Piperidide; lactam N-11): the IC50 in test [1] was 50 to 100 nM; in test [2], 0.89 nM.
In the same order, the values of `CC[C@H](C)[C@@H]1NC(=O)[C@H](CC(C)C)N(C)C(=O)C[C@@H](C(=O)N(C)C)N(C)C(=O)[C@H](C(C)C)N(C)C(=O)C2(CCCC2)NC(=O)[C@@H]2CCCN2C(=O)[C@H](CCc2ccc(C(F)(F)F)c(Cl)c2)NC(=O)CN(C)C(=O)[C@H](CC2CCCCC2)N(C)C(=O)CN(C)C(=O)CN(C)C1=O` [Compound 1812] ([NMeL]I[Sar][Sar][NMeCha][Sar][hPhe(3-Cl-4-CF3)]P[Ac5c][NMeV][NMeD]-NMe2; lactam N-11) are 50 to 100 nM and 0.56 nM.
Regarding `CC[C@H](C)[C@@H]1NC(=O)[C@H](CC(C)C)N(C)C(=O)C[C@@H](C(=O)N2CCCCC2)N(C)C(=O)[C@H](C2CCCCC2)N(C)C(=O)C2(CCCC2)NC(=O)[C@@H]2CCCN2C(=O)[C@H](CCc2ccc(C(F)(F)F)c(Cl)c2)NC(=O)CN(C)C(=O)[C@H](CC2CCC2)N(C)C(=O)CN(C)C(=O)CN(C)C1=O` [Compound 1817] ([NMeL]I[Sar][Sar][NMeCba][Sar][hPhe(3-Cl-4-CF3)]P[Ac5c][NMeChg][NMeD]-Piperidide; lactam N-11), the IC50 was 100 to 500 nM in test [1] and 1.4 nM in test [2].
Regarding `CC[C@H](C)[C@@H]1NC(=O)[C@H](CC(C)C)N(C)C(=O)C[C@@H](C(=O)N2CCCCC2)N(C)C(=O)[C@H](C2CCCCC2)N(C)C(=O)C2(CCC2)NC(=O)[C@@H]2CCCN2C(=O)[C@H](CCc2ccc(C(F)(F)F)c(Cl)c2)NC(=O)CN(C)C(=O)[C@H](CC2CCCCC2)N(C)C(=O)CN(C)C(=O)CN(C)C1=O` [Compound 1821] ([NMeL]I[Sar][Sar][NMeCha][Sar][hPhe(3-Cl-4-CF3)]P[Ac4c][NMeChg][NMeD]-Piperidide; lactam N-11), the IC50 in test [1] is 20 to 50 nM; in test [2], 0.99 nM.
In the same order, the values of `CC(C)C[C@H]1C(=O)N[C@@H](C2CCCC2)C(=O)N(C)CC(=O)N(C)CC(=O)N(C)[C@@H](CC2CCCCC2)C(=O)N(C)CC(=O)N[C@@H](CCc2ccc(C(F)(F)F)c(Cl)c2)C(=O)N2CCC[C@H]2C(=O)NC2(CCCC2)C(=O)N(C)[C@@H](C2CCCCC2)C(=O)N(C)[C@H](C(=O)N2CCCCC2)CC(=O)N1C` [Compound 1824] ([NMeL][Gly(cPent)][Sar][Sar][NMeCha][Sar][hPhe(3-Cl-4-CF3)]P[Ac5c][NMeChg][NMeD]-Piperidide; lactam N-11) are 50 to 100 nM and 0.75 nM.
In the case of `CC[C@H](C)[C@@H]1NC(=O)[C@H](CC(C)C)N(C)C(=O)C[C@@H](C(=O)N2CCCCC2)N(C)C(=O)[C@H](C(C)C)N(C)C(=O)C2(CCCC2)NC(=O)[C@@H]2CCCN2C(=O)[C@H](CCc2ccc(C(F)(F)F)c(Cl)c2)NC(=O)CN(C)C(=O)[C@H](C2CCCC2)N(C)C(=O)[C@@H]2CCN2C(=O)[C@H](C)N(C)C1=O` [Compound 1825] ([NMeL]I[NMeA][Aze][NMeGly(cPent)][Sar][hPhe(3-Cl-4-CF3)]P[Ac5c][NMeV][NMeD]-Piperidide; lactam N-11), the IC50 is 100 to 500 nM in test [1] and 3.4 nM in test [2].
In the same order, the values of `CC[C@H](C)[C@@H]1NC(=O)[C@H](CC(C)C)N(C)C(=O)C[C@@H](C(=O)N2CCCCC2)N(C)C(=O)[C@H](C2CCCCC2)N(C)C(=O)C2(CCCC2)NC(=O)[C@@H]2CCCN2C(=O)[C@H](CCc2ccc(C(F)(F)F)c(Cl)c2)NC(=O)CN(C)C(=O)[C@H](C(C)C)N(C)C(=O)CN(C)C(=O)CN(C)C1=O` [Compound 1829] ([NMeL]I[Sar][Sar][NMeV][Sar][hPhe(3-Cl-4-CF3)]P[Ac5c][NMeChg][NMeD]-Piperidide; lactam N-11) are 100 to 500 nM and 1.5 nM.
In the same order, the values of `CC[C@H](C)[C@@H]1NC(=O)[C@H](CC(C)C)N(C)C(=O)C[C@@H](C(=O)N2CCCCC2)N(C)C(=O)[C@H](C2CCCCC2)N(C)C(=O)C2(CCCC2)NC(=O)[C@@H]2CCCN2C(=O)[C@H](CCc2ccc(C(F)(F)F)c(Cl)c2)NC(=O)CN(C)C(=O)[C@H](CCC(C)C)N(C)C(=O)CN(C)C(=O)CN(C)C1=O` [Compound 1830] ([NMeL]I[Sar][Sar][NMehLeu][Sar][hPhe(3-Cl-4-CF3)]P[Ac5c][NMeChg][NMeD]-Piperidide; lactam N-11) are 100 to 500 nM and 1.6 nM.
The like results for `CCCC[C@H]1C(=O)N(C)CC(=O)N[C@@H](CCc2ccc(C(F)(F)F)c(Cl)c2)C(=O)N2CCC[C@H]2C(=O)NC2(CCCC2)C(=O)N(C)[C@@H](C2CCCCC2)C(=O)N(C)[C@H](C(=O)N2CCCCC2)CC(=O)N(C)[C@@H](CC(C)C)C(=O)N[C@@H]([C@@H](C)CC)C(=O)N(C)CC(=O)N(C)CC(=O)N1C` [Compound 1832] ([NMeL]I[Sar][Sar][NMeNle][Sar][hPhe(3-Cl-4-CF3)]P[Ac5c][NMeChg][NMeD]-Piperidide; lactam N-11) were, in that order, 100 to 500 nM and 1 nM.

For orientation: IC50 means the concentration at which inhibition is half-maximal.
